From ChEMBL document CHEMBL1201862, “PubChem BioAssay data set” (2004)
Active and inactive are the calls of the source.

Tests used:
[1] = insulin promoter down-regulators in MIN6 cells, imaging, high-content screening, mouse beta cells (AID 1628); type: functional
[2] = cytotoxicity in MIN6 insulinoma cells, dose response, cytotoxicity control, cell-based, mouse insulinoma (AID 2122); type: functional;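 note: confirmatory high-throughput counterscreen run to flag cytotoxic compounds; mouse MIN-6 beta cells carrying an insulin promoter eGFP reporter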
[3] = inhibitors of intracellular T. cruzi replication, confirmation, NIH3T3 host cells, beta-gal luminescence (AID 2044); type: functional, cell-based;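 note: intracellular parasites grown in NIH/3T3 mouse fibroblasts as host cells; luminescent beta-galactosidase reporter signal from transgenic T. cruzi replicating inside host cells; inhibitors lower the luminescence signal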
[4] = cytotoxicity toward NIH3T3 fibroblasts, dose response, counter-screen, cell-based, ATP luminescence, mouse fibroblasts (AID 2010); type: functional;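 note: cells exposed to compound for about 90 hours before reading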
[5] = molecular target: DNA dC->dU-editing enzyme APOBEC-3A (Homo sapiens, UniProt P31941); test: Dose Response confirmation of small molecule APOBEC3A DNA Deaminase Inhibitors via a fluorescence-based single-stranded DNA deaminase assay. [Related pubchem assays (depositor defined):AID493011, AID493024]; type: functional
[6] = molecular target: DNA dC->dU-editing enzyme APOBEC-3G (Homo sapiens, UniProt Q9HC16); type: functional;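 note: Dose-response counterscreen measuring inhibition of APOBEC3G DNA deaminase activity, run while confirming APOBEC3A inhibitors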
[7] = system: INS1; test: beta cell apoptosis inhibitors, cytokine rescue, dose response, luminescence, retest (AID 449756); type: functional, cell-based; details: Rattus norvegicus;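 note: cell death triggered by IL-1 beta plus TNF-alpha plus IFN-gamma mixture; protective hits raise ATP signal compared with cytokine alone wells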
[8] = molecular target: Intestinal-type alkaline phosphatase (Mus musculus, UniProt P24822); test: PubChem AID 488785; type: functional
[9] = molecular target: T1, Alkaline phosphatase, tissue-nonspecific isozyme (Homo sapiens, UniProt P05186); test: TNAP enzyme inhibition by screening hits, dose response, selectivity assay for mouse IAP inhibitor project, biochemical, human TNAP, uHTS hits (AID 488906); type: functional
T1 sequence (P05186 whole entry): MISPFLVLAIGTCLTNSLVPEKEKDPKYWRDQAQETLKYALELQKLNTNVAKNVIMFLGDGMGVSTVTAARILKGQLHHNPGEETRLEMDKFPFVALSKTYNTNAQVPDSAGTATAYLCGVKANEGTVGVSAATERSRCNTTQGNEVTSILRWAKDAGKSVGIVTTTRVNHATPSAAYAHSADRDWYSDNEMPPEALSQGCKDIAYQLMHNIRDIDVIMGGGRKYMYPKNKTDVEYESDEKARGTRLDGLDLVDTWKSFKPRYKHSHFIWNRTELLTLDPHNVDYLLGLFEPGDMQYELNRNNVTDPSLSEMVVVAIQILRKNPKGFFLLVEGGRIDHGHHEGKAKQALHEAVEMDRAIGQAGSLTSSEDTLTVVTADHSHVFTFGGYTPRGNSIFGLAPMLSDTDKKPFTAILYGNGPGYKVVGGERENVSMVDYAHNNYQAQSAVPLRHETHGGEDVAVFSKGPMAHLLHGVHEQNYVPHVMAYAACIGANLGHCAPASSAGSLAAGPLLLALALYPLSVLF

[10] = molecular target: Intestinal-type alkaline phosphatase (Homo sapiens, UniProt P09923); test: inhibition of human intestinal alkaline phosphatase – biochemical, dose response (AID 488876); type: functional
[11] = molecular target: Eukaryotic translation initiation factor 4E (Mus musculus, UniProt P63073); test: eIF4E–eIF4G protein interaction inhibitors, dose response, biochemical, TR-FRET (AID 855); type: functional;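 note: potency for disrupting eIF4E binding to eIF4GI seen as loss of FRET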
[12] = microbe, parasite or virus in culture; type: functional; details: Mycobacterium tuberculosis
[13] = THP-1 cell cytotoxicity, dose response, cytotoxicity control for non-replicating M. tuberculosis project (AID 489025); type: functional
[14] = Luminescence Cell-Based Dose Retest to Confirm Inhibitors of Cancer Stem Cells. [Related pubchem assays (depositor defined):AID2717, AID2721]; type: functional; details: Homo sapiens
[15] = HepG2 cell cytotoxicity, dose response, cytotoxicity control for non-replicating M. tuberculosis project (AID 489018); type: functional; details: Mycobacterium tuberculosis
[16] = Vero E6 cell cytotoxicity, dose response, cytotoxicity control for non-replicating M. tuberculosis project, secondary assay (AID 492998); type: functional, VeroE6; details: Vero C1008
[17] = cells; type: functional
[18] = molecular target: Eukaryotic translation initiation factor 4H (Homo sapiens, UniProt Q15056); test: human eIF4H binding inhibitors, primary screen, translation initiation inhibitor project, biochemical, uHTS, fluorescence polarization (AID 2012)
[19] = molecular target: Polyadenylate-binding protein 1 (Homo sapiens, UniProt P11940); test: PABP poly(A) RNA binding inhibitors, primary screen, biochemical, fluorescence polarization, uHTS (AID 2014)
[20] = HEp-2 cell cytotoxicity, dose response, cytotoxicity control for RSV inhibitor project, HTS (AID 2410); type: functional; details: human respiratory syncytial virus
[21] = cells
[22] = molecular target: T2, Estrogen receptor (Homo sapiens, UniProt P03372);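 note: potency for inhibiting coactivator peptide recruitment to the receptor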
T2 sequence (P03372 whole entry): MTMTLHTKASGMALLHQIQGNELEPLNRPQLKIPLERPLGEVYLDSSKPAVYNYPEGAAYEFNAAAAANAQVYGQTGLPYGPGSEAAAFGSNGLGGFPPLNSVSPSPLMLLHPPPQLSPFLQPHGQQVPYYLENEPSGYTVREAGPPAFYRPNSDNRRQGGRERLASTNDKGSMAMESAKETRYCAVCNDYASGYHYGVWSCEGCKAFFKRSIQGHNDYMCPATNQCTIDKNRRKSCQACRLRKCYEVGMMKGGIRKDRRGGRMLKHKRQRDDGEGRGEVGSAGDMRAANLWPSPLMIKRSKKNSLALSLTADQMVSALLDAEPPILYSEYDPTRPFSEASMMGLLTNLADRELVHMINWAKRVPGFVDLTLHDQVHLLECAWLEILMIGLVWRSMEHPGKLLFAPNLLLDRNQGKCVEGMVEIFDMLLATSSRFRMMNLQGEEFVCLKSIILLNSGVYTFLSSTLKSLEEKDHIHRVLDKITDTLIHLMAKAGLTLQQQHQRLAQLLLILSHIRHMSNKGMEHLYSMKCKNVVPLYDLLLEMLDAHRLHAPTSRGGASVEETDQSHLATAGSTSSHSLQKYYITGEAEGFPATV

[23] = molecular target: Voltage-dependent T-type calcium channel subunit alpha-1H (Homo sapiens, UniProt O95180); type: functional;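 note: channel activity triggered by adding a high calcium stimulation buffer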
[24] = molecular target: T3, RNA-binding protein pos-1 (Caenorhabditis elegans, UniProt G5EF15); test: inhibitors of POS-1/mex-3 RNA binding, dose response, biochemical, fluorescence polarization (AID 1964);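 note: purified POS-1 fused to maltose binding protein made in E. coli; potency of compounds blocking POS-1 binding to fluorescent RNA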
T3 sequence (G5EF15 whole entry): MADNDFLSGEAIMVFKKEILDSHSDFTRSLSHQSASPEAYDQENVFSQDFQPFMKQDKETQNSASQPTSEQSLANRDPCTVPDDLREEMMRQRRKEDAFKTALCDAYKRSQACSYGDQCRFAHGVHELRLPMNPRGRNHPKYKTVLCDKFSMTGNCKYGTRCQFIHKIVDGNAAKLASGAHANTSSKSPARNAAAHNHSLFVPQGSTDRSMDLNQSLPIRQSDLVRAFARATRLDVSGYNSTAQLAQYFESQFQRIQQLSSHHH

[25] = molecular target: T4, Zinc finger protein mex-5 (Caenorhabditis elegans, UniProt Q9XUB2); test: MEX-5/TCR-2 RNA interaction inhibitors, dose response, biochemical, C. elegans, fluorescence polarization (AID 1960)
T4 sequence (Q9XUB2 whole entry): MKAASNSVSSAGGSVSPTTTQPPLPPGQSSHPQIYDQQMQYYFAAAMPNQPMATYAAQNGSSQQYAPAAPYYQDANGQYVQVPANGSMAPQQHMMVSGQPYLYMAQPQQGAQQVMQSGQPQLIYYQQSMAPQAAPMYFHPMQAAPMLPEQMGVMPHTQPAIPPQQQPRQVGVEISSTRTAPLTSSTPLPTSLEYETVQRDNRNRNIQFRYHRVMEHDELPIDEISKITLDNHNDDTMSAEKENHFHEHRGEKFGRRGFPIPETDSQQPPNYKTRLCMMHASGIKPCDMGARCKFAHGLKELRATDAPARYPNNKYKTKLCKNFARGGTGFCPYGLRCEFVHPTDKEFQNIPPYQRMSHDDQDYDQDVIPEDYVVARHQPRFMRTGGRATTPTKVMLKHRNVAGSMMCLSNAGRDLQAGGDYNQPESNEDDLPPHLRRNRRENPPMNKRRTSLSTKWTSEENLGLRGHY

[26] = molecular target: T5, Voltage-gated N-type calcium channel alpha-1B subunit/Amyloid beta A4 precursor protein-binding family A member 1 (Homo sapiens, UniProt Q00975+Q02410); type: protein assay
[27] = molecular target: T5, Voltage-gated N-type calcium channel alpha-1B subunit/Amyloid beta A4 precursor protein-binding family A member 1; type: protein assay; remark: listed apart in the source
[28] = molecular target: T6, Endoribonuclease toxin MazF (Escherichia coli K-12, UniProt P0AE70); test: MazF toxin RNase activators, dose response, biochemical, fluorescence, single-stranded RNA substrate, uHTS hits (AID 588481); type: functional
T6 sequence (P0AE70 whole entry): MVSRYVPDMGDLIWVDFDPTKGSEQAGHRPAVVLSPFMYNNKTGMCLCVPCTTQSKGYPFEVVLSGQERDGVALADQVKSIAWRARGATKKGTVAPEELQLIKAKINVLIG

[29] = molecular target: T6, Endoribonuclease toxin MazF; test: fluorescent RNA oligo signal without MazF, dose response, counter-screen for MazEF activator project, biochemical, fluorescence, single-stranded RNase substrate (AID 588502); type: functional
[30] = molecular target: T7, Corticotropin-releasing factor receptor 2/Corticotropin-releasing factor-binding protein (Homo sapiens, UniProt P24387+Q13324); test: activators of CRF receptor 2 with binding protein – uHTS hits, confirmation (AID 602473); type: functional; details: read-out: EC50_Mean
T7 sequence (Q13324 whole entry): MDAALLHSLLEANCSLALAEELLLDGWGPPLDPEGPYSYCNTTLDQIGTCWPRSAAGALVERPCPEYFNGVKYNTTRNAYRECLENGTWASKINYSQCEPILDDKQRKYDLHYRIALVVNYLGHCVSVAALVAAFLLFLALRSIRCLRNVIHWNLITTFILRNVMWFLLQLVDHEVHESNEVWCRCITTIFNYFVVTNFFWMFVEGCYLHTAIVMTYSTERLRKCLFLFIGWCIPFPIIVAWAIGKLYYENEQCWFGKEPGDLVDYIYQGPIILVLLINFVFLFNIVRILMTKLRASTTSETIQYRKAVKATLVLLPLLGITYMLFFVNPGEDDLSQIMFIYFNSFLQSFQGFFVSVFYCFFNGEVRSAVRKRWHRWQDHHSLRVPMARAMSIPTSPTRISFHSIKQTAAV
T7 sequence (P24387 whole entry): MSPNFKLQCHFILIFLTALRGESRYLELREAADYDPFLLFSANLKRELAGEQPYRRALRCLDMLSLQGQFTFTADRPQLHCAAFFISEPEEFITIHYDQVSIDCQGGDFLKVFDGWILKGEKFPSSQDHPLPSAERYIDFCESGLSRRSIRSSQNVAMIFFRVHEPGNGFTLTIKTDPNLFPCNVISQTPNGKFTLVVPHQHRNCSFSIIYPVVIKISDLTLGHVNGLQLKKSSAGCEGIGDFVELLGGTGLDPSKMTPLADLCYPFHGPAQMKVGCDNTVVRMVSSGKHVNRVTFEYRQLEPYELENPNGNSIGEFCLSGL

Polyadenylate-binding protein 1, sequence (P11940 whole entry): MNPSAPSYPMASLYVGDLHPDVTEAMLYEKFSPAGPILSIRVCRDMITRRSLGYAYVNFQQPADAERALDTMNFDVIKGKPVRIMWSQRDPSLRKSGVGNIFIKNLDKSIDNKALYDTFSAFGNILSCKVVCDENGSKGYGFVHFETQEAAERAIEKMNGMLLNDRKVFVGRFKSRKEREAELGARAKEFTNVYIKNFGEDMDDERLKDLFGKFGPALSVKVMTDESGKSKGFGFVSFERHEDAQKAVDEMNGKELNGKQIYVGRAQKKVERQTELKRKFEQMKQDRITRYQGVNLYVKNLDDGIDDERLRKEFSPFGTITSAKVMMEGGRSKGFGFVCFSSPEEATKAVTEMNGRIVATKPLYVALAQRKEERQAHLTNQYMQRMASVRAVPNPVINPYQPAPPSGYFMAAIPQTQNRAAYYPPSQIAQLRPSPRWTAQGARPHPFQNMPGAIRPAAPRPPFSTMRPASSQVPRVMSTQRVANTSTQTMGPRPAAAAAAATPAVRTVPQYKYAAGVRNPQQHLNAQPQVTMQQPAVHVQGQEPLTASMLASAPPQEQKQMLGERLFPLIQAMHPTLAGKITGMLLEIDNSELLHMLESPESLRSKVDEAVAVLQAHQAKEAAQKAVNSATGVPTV
Eukaryotic translation initiation factor 4E, sequence (P63073 whole entry): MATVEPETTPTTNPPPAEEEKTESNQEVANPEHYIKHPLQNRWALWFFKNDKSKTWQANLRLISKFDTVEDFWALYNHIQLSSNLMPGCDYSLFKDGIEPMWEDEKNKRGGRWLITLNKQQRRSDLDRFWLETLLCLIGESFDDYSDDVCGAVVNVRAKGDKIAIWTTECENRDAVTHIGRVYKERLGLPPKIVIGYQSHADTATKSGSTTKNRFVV
T5 sequence (Q00975 whole entry): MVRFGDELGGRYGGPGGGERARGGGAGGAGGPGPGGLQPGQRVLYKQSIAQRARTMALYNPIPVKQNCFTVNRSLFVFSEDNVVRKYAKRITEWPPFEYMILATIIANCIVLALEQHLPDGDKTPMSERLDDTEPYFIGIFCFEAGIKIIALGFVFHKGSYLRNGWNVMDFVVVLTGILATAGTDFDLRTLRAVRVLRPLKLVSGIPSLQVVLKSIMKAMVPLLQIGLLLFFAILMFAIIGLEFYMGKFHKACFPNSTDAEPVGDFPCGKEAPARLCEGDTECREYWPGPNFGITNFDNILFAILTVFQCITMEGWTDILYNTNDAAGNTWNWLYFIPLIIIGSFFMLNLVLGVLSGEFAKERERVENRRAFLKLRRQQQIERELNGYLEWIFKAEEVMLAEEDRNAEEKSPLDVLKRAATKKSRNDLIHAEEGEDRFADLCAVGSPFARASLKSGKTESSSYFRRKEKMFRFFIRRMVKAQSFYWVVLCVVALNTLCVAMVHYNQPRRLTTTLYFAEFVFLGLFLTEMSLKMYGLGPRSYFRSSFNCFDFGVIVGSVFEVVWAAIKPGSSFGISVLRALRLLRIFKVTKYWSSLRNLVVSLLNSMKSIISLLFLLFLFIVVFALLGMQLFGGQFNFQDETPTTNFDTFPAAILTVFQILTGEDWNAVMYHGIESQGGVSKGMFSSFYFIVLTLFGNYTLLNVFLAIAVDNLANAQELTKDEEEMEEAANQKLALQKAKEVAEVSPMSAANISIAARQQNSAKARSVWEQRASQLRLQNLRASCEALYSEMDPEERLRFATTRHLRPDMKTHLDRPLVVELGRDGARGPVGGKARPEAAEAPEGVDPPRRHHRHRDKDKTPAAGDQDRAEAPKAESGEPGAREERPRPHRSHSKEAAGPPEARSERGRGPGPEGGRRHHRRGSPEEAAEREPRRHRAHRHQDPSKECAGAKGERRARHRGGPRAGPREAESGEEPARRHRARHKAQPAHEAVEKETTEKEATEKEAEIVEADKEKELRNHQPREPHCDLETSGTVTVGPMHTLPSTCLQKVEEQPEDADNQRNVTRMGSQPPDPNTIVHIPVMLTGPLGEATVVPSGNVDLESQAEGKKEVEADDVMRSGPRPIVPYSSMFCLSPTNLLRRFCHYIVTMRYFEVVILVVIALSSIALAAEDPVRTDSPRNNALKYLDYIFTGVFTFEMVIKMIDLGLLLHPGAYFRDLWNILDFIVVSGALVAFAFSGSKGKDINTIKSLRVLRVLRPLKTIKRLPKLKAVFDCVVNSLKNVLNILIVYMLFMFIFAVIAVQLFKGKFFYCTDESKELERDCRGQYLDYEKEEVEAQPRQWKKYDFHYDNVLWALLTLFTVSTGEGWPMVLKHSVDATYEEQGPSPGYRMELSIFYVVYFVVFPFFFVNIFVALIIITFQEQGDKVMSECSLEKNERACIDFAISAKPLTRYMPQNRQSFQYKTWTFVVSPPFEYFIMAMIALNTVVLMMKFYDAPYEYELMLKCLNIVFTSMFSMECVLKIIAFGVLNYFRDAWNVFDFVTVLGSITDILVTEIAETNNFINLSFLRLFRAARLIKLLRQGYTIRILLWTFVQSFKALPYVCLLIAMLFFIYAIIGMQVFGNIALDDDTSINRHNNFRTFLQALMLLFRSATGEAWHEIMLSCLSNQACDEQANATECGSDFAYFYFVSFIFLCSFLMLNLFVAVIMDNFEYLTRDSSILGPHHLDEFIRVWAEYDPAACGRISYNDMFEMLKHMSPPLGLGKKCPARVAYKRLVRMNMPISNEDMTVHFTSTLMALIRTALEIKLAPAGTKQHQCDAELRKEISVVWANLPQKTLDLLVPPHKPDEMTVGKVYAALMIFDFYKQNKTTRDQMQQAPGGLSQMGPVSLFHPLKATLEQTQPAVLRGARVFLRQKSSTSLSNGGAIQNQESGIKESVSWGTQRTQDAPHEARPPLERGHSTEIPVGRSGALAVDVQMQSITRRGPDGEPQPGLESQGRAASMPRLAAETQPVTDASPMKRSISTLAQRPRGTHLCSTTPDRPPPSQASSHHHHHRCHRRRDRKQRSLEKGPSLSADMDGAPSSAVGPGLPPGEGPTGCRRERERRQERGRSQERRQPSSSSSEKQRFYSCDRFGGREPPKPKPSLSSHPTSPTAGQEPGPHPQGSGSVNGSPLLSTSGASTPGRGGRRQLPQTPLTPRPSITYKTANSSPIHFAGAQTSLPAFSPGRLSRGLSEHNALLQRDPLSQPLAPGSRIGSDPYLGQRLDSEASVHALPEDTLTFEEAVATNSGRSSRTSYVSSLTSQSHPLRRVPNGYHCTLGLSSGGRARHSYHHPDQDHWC
T5 sequence (Q02410 whole entry): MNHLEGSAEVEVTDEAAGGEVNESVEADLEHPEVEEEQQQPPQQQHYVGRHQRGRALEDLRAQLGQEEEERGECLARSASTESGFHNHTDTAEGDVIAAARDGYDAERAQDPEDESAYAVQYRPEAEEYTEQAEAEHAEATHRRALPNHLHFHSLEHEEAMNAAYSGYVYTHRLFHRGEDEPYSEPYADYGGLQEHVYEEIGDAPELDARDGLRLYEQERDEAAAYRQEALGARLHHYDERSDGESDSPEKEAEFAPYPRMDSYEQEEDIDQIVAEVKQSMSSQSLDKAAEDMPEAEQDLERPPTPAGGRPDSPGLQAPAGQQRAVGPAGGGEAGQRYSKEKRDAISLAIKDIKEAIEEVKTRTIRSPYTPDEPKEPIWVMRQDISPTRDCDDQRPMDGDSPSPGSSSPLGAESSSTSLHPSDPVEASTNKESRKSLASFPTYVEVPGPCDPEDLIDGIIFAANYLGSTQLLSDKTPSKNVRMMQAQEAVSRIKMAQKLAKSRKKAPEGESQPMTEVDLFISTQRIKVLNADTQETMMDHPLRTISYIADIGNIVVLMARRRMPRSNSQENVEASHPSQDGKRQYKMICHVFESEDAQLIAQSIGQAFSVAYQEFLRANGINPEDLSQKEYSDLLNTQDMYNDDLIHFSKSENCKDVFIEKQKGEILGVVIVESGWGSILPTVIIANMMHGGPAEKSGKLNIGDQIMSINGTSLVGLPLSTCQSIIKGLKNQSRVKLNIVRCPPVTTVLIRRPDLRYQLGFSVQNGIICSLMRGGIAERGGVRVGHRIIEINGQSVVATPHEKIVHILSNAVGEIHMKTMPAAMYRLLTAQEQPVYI
Intestinal-type alkaline phosphatase (Homo sapiens, UniProt P09923), sequence (P09923 whole entry): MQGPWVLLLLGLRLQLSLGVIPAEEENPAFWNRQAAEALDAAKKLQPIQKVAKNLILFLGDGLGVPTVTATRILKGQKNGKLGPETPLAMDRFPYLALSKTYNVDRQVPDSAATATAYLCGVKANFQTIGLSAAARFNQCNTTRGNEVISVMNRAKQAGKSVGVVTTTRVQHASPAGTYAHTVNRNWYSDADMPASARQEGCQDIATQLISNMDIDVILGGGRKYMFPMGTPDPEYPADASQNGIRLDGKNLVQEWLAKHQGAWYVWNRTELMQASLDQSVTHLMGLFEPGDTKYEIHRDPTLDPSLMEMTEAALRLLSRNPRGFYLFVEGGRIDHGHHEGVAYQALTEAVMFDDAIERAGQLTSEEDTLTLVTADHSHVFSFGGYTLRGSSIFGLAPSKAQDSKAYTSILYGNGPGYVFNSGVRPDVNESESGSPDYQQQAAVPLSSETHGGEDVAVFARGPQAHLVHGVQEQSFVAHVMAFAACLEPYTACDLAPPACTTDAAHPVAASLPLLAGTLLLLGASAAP
DNA dC->dU-editing enzyme APOBEC-3A, sequence (P31941 whole entry): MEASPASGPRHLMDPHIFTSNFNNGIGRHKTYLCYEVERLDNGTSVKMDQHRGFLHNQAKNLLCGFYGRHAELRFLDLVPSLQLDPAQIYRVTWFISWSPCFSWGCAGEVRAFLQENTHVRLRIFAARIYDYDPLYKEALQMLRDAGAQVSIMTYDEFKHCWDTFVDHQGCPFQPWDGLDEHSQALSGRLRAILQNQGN

CCCCCCCC[n+]1c(C)n(-c2ccccc2)c2ccc(NC(C)=O)cc21
IC50 [1]: < 0.25 µM (active)
IC50 [2]: < 0.25 µM (active)
EC50 [3]: 0.768 µM (active)
EC50 [4]: > 60 µM (not active)
IC50 [5]: 1.44 µM (active)
IC50 [6]: 2.66 µM (active)
AC50 [7]: 2.41 µM (active)

CCCCCOc1ccc(C(=O)CCC(=O)NNC(=O)c2ccncc2)cc1
IC50 [8]: 14.7 µM (active)
IC50 [9]: > 100 µM (inactive)
IC50 [10]: 25.6 µM (active)

CCNc1ccc(C(=O)OCC(=O)NC(C)c2ccccc2)cc1[N+](=O)[O-] (configuration not stated)
IC50 [11]: > 64 µM (inactive)

COc1cc(CNCCc2ccccc2)cc(Cl)c1OCc1ccccc1
CC50 [12]: 22.9 µM (active)
CC50 [13]: 13.7 µM (active)
AC50 [14]: 5.32 µM (active)
CC50 [15]: 15.5 µM (active)
CC50 [16]: 17.4 µM (active)
IC50 [17]: 13.9 µM (active)

CCOC(=O)c1ccc2c(c1)[n+](CCO)c(C)n2CC
IC50 [18]: > 100 µM (inactive)
IC50 [19]: 3.29 µM (active)

C=CCNC1=N[C@@H](c2cccc(C(F)(F)F)c2)C(C(=O)OC)=C(C)N1CC
IC50 [18]: > 100 µM (inactive)
IC50 [19]: 9.23 µM (active)
IC50 [5]: 3.56 µM (active)
IC50 [6]: 3.81 µM (active)

CC(Oc1ccc(Cl)cc1Cl)C(=O)NNC(=O)C(=O)N1CCCCC1 (configuration not stated)
CC50 [20]: > 50 µM (active)
IC50 [21]: 40.6 µM (active)

O=C(CSc1nc2ccccc2c(=O)n1-c1ccccc1)NCC1CCCO1 (configuration not stated)
IC50 [18]: > 100 µM (inactive)
IC50 [19]: 6.35 µM (active)

Cc1cc(NC(=O)CSc2cn(CCNC(=O)c3ccc(Cl)cc3)c3ccccc23)no1
IC50 [22]: 24.9 µM (active)
EC50 [23]: 0.13 µM (active)

NS(=O)(=O)c1cc(C(=O)N=Nc2c(O)[nH]c3ccccc23)ccc1Cl
IC50 [8]: 42.4 µM (active)
IC50 [9]: > 100 µM (inactive)
IC50 [10]: > 100 µM (inactive)

Cc1ccc(OCCn2c(C3CC(=O)N(Cc4ccccc4)C3)nc3ccccc32)cc1 (configuration not stated)
CC50 [20]: 25.4 µM (active)
IC50 [21]: 3.14 µM (active)

COc1cccc(NC(=O)CSc2nc3ccccc3nc2N2CCCC2)c1
CC50 [20]: 17.2 µM (active)
IC50 [21]: 30.5 µM (active)

CCOC(=O)Cn1c2ccc(OC)cc2c2nc3ccccc3nc21
EC50 [24]: 0.862 µM (inconclusive)
EC50 [25]: 2.26 µM (active)
IC50 [26]: 4.34 µM (active)
IC50 [27]: > 50 µM (inactive)
EC50 [28]: > 99 µM (inactive)
EC50 [29]: 50.7 µM (inactive)

O=C(NC1CCCCCCC1)C1CCN(S(=O)(=O)N2CCCC2)CC1
IC50 [11]: > 64 µM (inactive)

CC(=O)c1cccc(NC(=O)Cc2cccs2)c1
IC50 [22]: 18.5 µM (active)

C=CCn1c(S)nnc1-c1ccoc1
IC50 [11]: > 64 µM (inactive)

CCCN(CCC)S(=O)(=O)c1ccc(C(=O)Nc2nnc(-c3cccc(OC)c3)o2)cc1
CC50 [13]: 1.49 µM (active)
CC50 [15]: 12.4 µM (active)
CC50 [16]: 3.51 µM (active)
IC50 [17]: 15.1 µM (active)
EC50 [30]: 5.45 µM (active)

NC(=O)c1ccc2c(O)c(O)c(-c3cc(Cl)c(N)c(Cl)c3)nc2c1
IC50 [26]: 14.1 µM (active)
IC50 [27]: 28.9 µM (active)
